From publication PMC8703450, “New Heterocyclic Combretastatin A-4 Analogs: Synthesis and Biological Activity of Styryl-2(3H)-benzothiazolones” (Pharmaceuticals, 2021)
Where two headings read alike, the source gives them in different places.

What was measured:
[1] = MTT cytotoxicity assay, BEAS-2B control cells; assay type: cell-based; details: human, read-out: Cytostatic activity (% viable cells)
Description: (§1) All tested compounds were dissolved in DMSO at 25 mM initial concentration and diluted with medium to obtain the working concentrations (0.01 nM–250 µM). Serial drug dilutions were prepared in medium immediately before each experiment. The DMSO working concentration in the medium was […]. For the MTT assay, cells were seeded into 96-well microtitre plates at a density of 1 × 10^4 in 100 µL complete medium per well. They were further incubated for 24 h, followed by treatment with CA-4 analogs up to 72 h. Cell viability was determined using the MTT assay. Ten µL of MTT solution (5 mg/mL) was added to each well and further incubated for 3 h at 37 °C. To dissolve the formazan product, 100 µL/well of 99.5% isopropanol was added. Cell viability was determined by measuring absorbance at 550/630 nm using a DTX880 plate reader (Beckman Coulter, USA). Results, expressed as concentrations that inhibit 20% (IC20), 50% (IC50), and 80% (IC80) of cell growth, were calculated using GraphPad Prism 8.0.1.
(§2) Table S 3.1. Description of eukaryotic cell lines used for MTT assay.
(§3) Panel Cell line Origin Tissue, characteristics Source Culture conditions
(§4) (h) lung carcinoma ATCC, CCL-185 U/mL penicillin, 100
lung, bronchus; insulin, rhEGF, GA-
BEAS-2B h epithelial virus ATCC, CRL- 1000, BPE,

HT-29 cells = assay: MTT cytotoxicity assay, HT-29; assay type: cell-based, human; details: for IC50: Homo sapiens
Description: as §1
Table S 3.1. Description of eukaryotic cell lines used for MTT assay. […]
(§5) HT-29 h colon, colorectal Radostina adenocarcinoma Alexandrova 3.1 g/L D-Glucose […]
colon, colon Kindly provided U/mL streptomycin

EA.hy926 cells [2] = assay: MTT cytotoxicity / growth inhibition assay, EA.hy926; assay type: cell-based, human; details: Homo sapiens; for IC50: EA.hy 926, 72 h of treatment
Description: The endothelial cell line (EA.hy926) was kindly provided by Dr. C-J.S. Edgell—University of North Carolina, USA. Cells were cultured in 4.5 g/L D-Glucose DMEM/F12 medium, supplemented with 10% fetal bovine serum (FBS, Cytogen GmBH, Greven, Germany) and 100 U/mL penicillin and streptomycin (Lonza BioWhitaker, Verviers, Belgium). The other cell lines used are described in Table S3.1. Cell cultures were maintained in an incubator at 37 °C with 95% humidity and 5% CO2 and were routinely found free of mycoplasma.
as §1

A549 cells = assay: MTT cytotoxicity assay, A549; assay type: cell-based; details: Homo sapiens, 72 h
Description: as §1, §2, §3, §4
lung, bronchus; insulin, rhEGF, GA- […]
Colon BAS) 10% (v/v) FBS, 100

EA.hy926 cells [3] = assay: Matrigel tube disruption assay; assay type: cell-based, human; details: EA.hy926 on Matrigel, 24 h of treatment
Description: The tube formation assay was performed in 96-well plates coated with 40 µL BD Matrigel™ (basement membrane matrix), following the manufacturer’s instruction (BD Biosciences). A total of 2 × 10^4 EA.hy926 cells was re-suspended in growth medium and added to each well in a final volume of 100 µL. Tube formation was visualized directly using a light microscope. Images were captured using a phase-contrast microscope and quantitation was performed using the WimTube application of the Wimasis online image analysis platform (https://www.wimasis.com/en/products/13/WimTube; accessed on 1 June 2021).

Colon-26 cells = assay: MTT cytotoxicity assay, Colon-26; assay type: cell-based; details: Mus musculus, 72 h
Description: as §1, §2
Panel Cell line Origin Tissue, characteristics Source Culture conditions […]
(h) lung carcinoma ATCC, CCL-185 U/mL penicillin, 100 […]
lung, bronchus; insulin, rhEGF, GA-BEAS-2B h epithelial virus ATCC, CRL- 1000, BPE, transformed 9609 transferrin,
as §5

[4] = system: colchicine binding site of β-tubulin; assay: Colchicine-binding site assay (EBI competition) in EA.hy926 cells; assay type: cell-based, human; details: then 100 µM EBI 2 h, Western blot
Description: N,N′-ethylene-bis(iodoacetamide) (abcam, ab144980) was dissolved in DMSO to a final concentration of 50 mM. EA.hy926 cells were seeded at density of 1 × 10^5 cells/mL and incubated overnight. […] Cells were lysed with Laemmli buffer and subjected to Western blot analysis for β-tubulin [66, 67]. The detailed Western blot method is as shown above.

EA.hy926 cells [5] = assay: Cell cycle analysis (propidium iodide, flow cytometry); assay type: cell-based, human; details: 300 nM 26Z or 10 nM CA-4
Description: A total of 5 × 10^5 cells was treated with 26Z and CA-4 for time-response assays. Cells were collected by scraping, pelleted, washed with cold PBS (1×), and fixed overnight at 4 °C with 1 mL of ice-cold methanol–acetone (1:1), added dropwise to the pellet while vortexing. Pellets were resuspended and washed in 500 μL of PBS (1×), then permeabilized with a Triton X-100 (0.05–0.1%)/DNA extraction buffer (0.2 M Na2HPO4, 0.04 M citric acid, pH 7.8) in a 1:1 ratio for 15 min. After that, pelleted cells were treated with RNAse A (20 μg/mL) and labeled with 10 μg/mL of propidium iodide (Sigma-Aldrich) by incubation at 37 °C for at least 30 min, protected from light. DNA content was measured using a FACS Calibur flow cytometer ([…], NJ, USA), and cell cycle analysis was performed with FlowJo software (version 8.7). At least 10,000 events were recorded for each sample measured in duplicate.

| SMILES | viability at 72 h ([1]; BEAS-2B cells) [%] | IC50 (HT-29 cells; HT-29 cells, 72 h, MTT, read-out: IC50) [nM] | IC50 (EA.hy926 cells [2]) [nM] | IC50 (A549 cells) [nM] | decrease of branching points (EA.hy926 cells [3]; equitoxic IC50 concentration) [%] | reduction of loop numbers (EA.hy926 cells [3]; equitoxic IC50 concentration) [%] | IC50 (Colon-26 cells) [nM] | tubulin EBI-adduct formation ([4]; EA.hy926, 10 μM compound 2 h) | cells in G2/M (EA.hy926 cells [5]; EA.hy926, 4 h) | cells in G2/M (EA.hy926 cells [5]; EA.hy926, 24 h) | viability at 72 h [1] [%] | greater cytotoxic effect compared to CA-4 (HT-29 cells; HT-29 cells, 72 h) | IC50 (HT-29 cells; HT-29, 72 h) [nM] | IC20 (EA.hy926 cells [2]; EA.hy 926, concentration that inhibits 20% of cell growth) [nM] | IC80 (EA.hy926 cells [2]; EA.hy 926, concentration that inhibits 80% of cell growth) [nM] | reduction in cumulative tube length (EA.hy926 cells [3]; IC50 concentration, compared with time 0) | tubulin EBI-adduct formation ([4]; EA.hy926, 25 µM compound 2 h) |
| --- | --- | --- | --- | --- | --- | --- | --- | --- | --- | --- | --- | --- | --- | --- | --- | --- | --- |
| COc1ccc(/C=C\c2cc(OC)c(OC)c(OC)c2)cc1O [CA-4, Combretastatin A-4] | 80 | 2160 ± 230 | 3.3 ± 0.2 | 3010 ± 160 | 50 | 56 ± 3 | 660 ± 82 | inhibited |  |  |  |  |  |  |  |  |  |
| COc1cc(/C=C\c2ccc3c(c2)sc(=O)n3C)cc(OC)c1OC [Compound 26Z, (Z)-3-methyl-6-(3,4,5-trimethoxystyryl)-2(3H)-benzothiazolone] |  |  | 130 ± 10 |  | 63 |  |  |  | ~ 35% | ~ 78% | 80 | more than 250 times | 8 ± 1 | 40 ± 10 | 300 ± 40 | ~ 70% | inhibited |
